The conditions of data set [1]: transmetallation with Zn^2+, cited from earlier work.
Data set [2] deals with MPO. In words: MR imaging of complete Freund's adjuvant (CFA) subcutaneous inflammation. Format: in vivo, mouse. Conditions: wild-type mice.
Description: The efficacy of mcMPO-Gd was validated in a well-established mouse model of subcutaneous inflammation induced by complete Freund's adjuvant (CFA). Six to ten weeks old female C57BL/6J mice (Jackson Laboratories, Bar Harbor, ME) and MPO-deficient mice were used for this experiment. The mice were injected subcutaneously with a 1:1 (v:v) emulsion of CFA:PBS (40 μL of total volume) on one forearm under isoflurane anesthesia. PBS (40 μL) was injected on the other side as control. After 24 h, gadolinium agents (mcMPO-Gd in PBS containing 10% DMSO and 20% N,N-dimethylacetamide, or MPO-Gd in PBS containing 5% DMSO, or Dotarem in PBS) were administered through tail vein injection and the mice imaged at 0 min, 15 min, 30 min, 45 min, and 60 min using serial T1-weighted imaging (TR:900 ms, TE: 13.59 ms, 0.156×0.156×0.5 mm Voxels) with chemical fat suppression and respiratory gating on a 4.7 T small animal MR scanner (Bruker, Cambridge, MA) with a 3-cm quadrature volume coil (Rapid MR International, Germany). Regions of interest (ROI) were drawn manually by a person blinded to the identity of the mice or imaging agent used, and the contrast-to-noise ratios (CNRs) were calculated as CNR=(SIlesion−SIskeletal muscle)/SDbackground.
24 h after injection of a CFA emulsion into the shoulder of mice, contrast agents (0.3 mol/kg) were injected via the tail vein and the animals imaged.
A short description of data set [3]: Kinetic stability: transmetallation with Zn^2+ (relaxation rate R1 over 95 h). The following applies: 1 mM agent, ZnCl2 2.5 mM, PBS, 40° C., 0.47 T. Format: physicochemical. How it is done:
Am. Chem. Soc., 2010, 132:168-177; and Laurent et al, Invest. Radiol., 2001, 36:115-122). mcMPO-Gd or MPO-Gd (1 mM) was incubated with ZnCl2 (2.5 mM) in PBS at 40° C., and the relaxation rates (R1) were measured for 95 h using an inversion-recovery pulse sequence on the Bruker Minispec (Bruker Analytics, North Billerica, MA) at 0.47 T (20 MHz) at 40° C. The stability of mcMPO-Gd was evaluated by kinetic index (R1(t)/R1(t=0)=0.8) and thermodynamic index (R1(72 h)/R1(t=0)) and compared with MPO-Gd (see e.g., Rodriguez et al, J. Am. Chem. […] Org. Chem., 2006, 71:3332-3334). […] T1 relaxation time was measured as previously described at different time points (see e.g., Rodriguez et al, J. Am. Chem. Soc., 2010, 132:168-177). […] Radiol., 2001, 36:115-122) indicating high stability of mcMPO-Gd, consistent with a previous report on the kinetic stability of the macrocyclic GBCAs (see e.g., Laurent et al, Contrast Media Mol. Imaging 2006, 1:128-137).

The target in data set [4] is bovine serum albumin (BSA) (Bos taurus, UniProt P02769). In words: Binding to proteins (BSA) after activation by MPO, T1 relaxation. Format: biochemical. Conditions: for T1 (Before activation, ms): 0.5 mM agent, PBS; for T1 (Before activation, ms) / T1 (After activation, ms) / T1 change(%): MPO/GOX, 40° C.; for T1 (After activation, ms) / T1 change(%): 1 h. How it is done: The capability of mcMPO-Gd and MPO-Gd to bind to bovine serum albumin (BSA) after activation by MPO was evaluated. […] The relaxation rates were measured as described above.

For data set [5], the target named is T1, MPO (Mus musculus, UniProt P11247).
T1 construct: from tissue; host or cells: carotid / brachiocephalic plaque of living male Apoe-/- mice
T1 sequence (P11247 139-718): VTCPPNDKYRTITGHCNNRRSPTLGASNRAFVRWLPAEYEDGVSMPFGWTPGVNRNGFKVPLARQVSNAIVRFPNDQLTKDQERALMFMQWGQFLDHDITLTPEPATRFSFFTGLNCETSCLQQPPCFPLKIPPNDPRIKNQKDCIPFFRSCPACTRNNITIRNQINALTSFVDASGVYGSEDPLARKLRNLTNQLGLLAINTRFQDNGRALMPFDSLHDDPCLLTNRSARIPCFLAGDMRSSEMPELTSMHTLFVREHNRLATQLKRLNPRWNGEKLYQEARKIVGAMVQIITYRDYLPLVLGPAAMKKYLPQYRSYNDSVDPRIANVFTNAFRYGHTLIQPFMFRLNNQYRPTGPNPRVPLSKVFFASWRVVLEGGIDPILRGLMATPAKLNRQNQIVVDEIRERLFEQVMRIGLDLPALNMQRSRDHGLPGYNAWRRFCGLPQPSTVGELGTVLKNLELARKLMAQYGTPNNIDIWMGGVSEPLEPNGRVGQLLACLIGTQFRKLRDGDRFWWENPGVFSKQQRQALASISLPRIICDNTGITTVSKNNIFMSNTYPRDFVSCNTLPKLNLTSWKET
Description: MR imaging of tandem stenosis (TS) model of atherosclerotic plaque instability, intervention with AZM198. Format: in vivo. The following applies: TS Apoe^−/− mice, 7 weeks after TS surgery, 0.3 mmol/kg i.v. An excerpt:
Six weeks after commencement of WD, tandem stenosis (TS) was introduced into the mice as previously described (see e.g., Rashid et al, Eur. Heart J., 2018, 39:3301-3310). Male Apoe^-/- mice were anesthetized with 4% isoflurane. The right common carotid artery was dissected from circumferential connective tissues. Two stenoses were placed by tying a 6-0 blue-braided polyester fiber suture (TICRON 0.7 Metric) around the exposed artery, with the distal stenosis 1 mm from the carotid artery bifurcation and the proximal stenosis 3 mm from the distal stenosis. Blood flow was measured before and after the addition of each ligature using a perivascular flow module (Transonic, TS420) and a 0.7 mm perivascular flow probe (Transonic MA0.7PSB). Flow for each ligature in the TS was defined as 70% of baseline flow after addition of the distal ligature and 20% of baseline flow after addition of the proximal ligature. […] The contrast-to-noise ratio (CNR) was calculated as follows: CNR=([…] muscle)/SDbackground. The mean CNRs of three consecutive slices in plaque with unstable phenotype and corresponding segments of the left carotid artery (plaque-free), in addition to 1-2 consecutive slices in the brachiocephalic trunk (stable plaque), were calculated. Segmental enhancement attributable to MPO was assessed by calculating the ΔCNR=CNRpost-contrast-CNRpre-contrast. […]

For data set [6] the following is noted: 0.47 T, PBS, 40° C.; determined previously (Querol et al); cited from earlier work.

Sequence of bovine serum albumin (BSA) (P02769 25-607): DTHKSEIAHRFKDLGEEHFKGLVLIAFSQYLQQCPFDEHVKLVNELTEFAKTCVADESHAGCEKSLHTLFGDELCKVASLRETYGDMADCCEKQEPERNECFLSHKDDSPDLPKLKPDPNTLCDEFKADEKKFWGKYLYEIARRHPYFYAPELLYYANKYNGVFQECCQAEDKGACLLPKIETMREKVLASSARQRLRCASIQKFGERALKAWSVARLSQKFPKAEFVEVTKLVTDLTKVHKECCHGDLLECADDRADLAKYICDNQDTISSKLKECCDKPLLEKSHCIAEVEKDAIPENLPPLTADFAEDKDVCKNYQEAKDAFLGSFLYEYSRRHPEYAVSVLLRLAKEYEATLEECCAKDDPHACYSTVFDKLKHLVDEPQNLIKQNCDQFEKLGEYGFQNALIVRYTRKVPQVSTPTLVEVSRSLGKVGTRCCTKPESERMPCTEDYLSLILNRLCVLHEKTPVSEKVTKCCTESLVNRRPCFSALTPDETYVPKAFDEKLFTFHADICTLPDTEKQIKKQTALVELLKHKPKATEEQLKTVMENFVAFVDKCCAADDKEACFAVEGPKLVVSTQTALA

With `CNC(=O)CN(CCN(CCN(CC(=O)[O-])CC(=O)NC)CC(=O)[O-])CC(=O)[O-].[Gd+3]` [BMA—DTPA—Gd, BMA-Gd-DTPA], in data set [1] (literature value (Laurent et al)), the “R1(t=72 h)/R1(t=0) (long-term index)” value was 0.09. Also, the “t (min) for R1(t)/R1(t=0) = 0.8” value in data set [1] (literature value) is 50 to 60 min.
On to `CNC[C@H](O)[C@@H](O)[C@H](O)[C@H](O)CO.O=C([O-])CN1CCN(CC(=O)[O-])CCN(CC(=O)O)CCN(CC(=O)[O-])CC1.[Gd+3]` [Dotarem, gadoterate meglumine], for which the “contrast-to-noise ratio (CNR) over time” value in the data set on MPO [2] (i.v., over 60 min) is “decreased rapidly over time”.
Consider `O=C([O-])CN(CCN(CC(=O)[O-])CC(=O)NCCc1c[nH]c2ccc(O)cc12)CCN(CC(=O)[O-])CC(=O)NCCc1c[nH]c2ccc(O)cc12.[Gd+3]` [MPO-Gd, bis-5-HT-Gd-DTPA], for which, in data set [3], the “R1(t=72 h)/R1(t=0) (long-term / thermodynamic index)” value came out at 0.76 and the “t (min) for R1(t)/R1(t=0) = 0.8 (kinetic / ratio index)” value amounted to 2866 min. Also, the “improvement in T1 shortening in the presence of BSA” value in data set [4] (BSA vs no BSA, after MPO activation) is 22%. In addition, in data set [4] (BSA), the “T1 (Before activation, ms)” value worked out at 381 ms; the “T1 (After activation, ms)” value came out at 246 ms; the “T1 change(%)” value turned out to be 54%. Moreover, in data set [4] (No BSA), the “T1 (Before activation, ms)” value is 375 ms; the “T1 (After activation, ms)” value is recorded as 283 ms; the “T1 change(%)” value was found to be 32%. In the data set with MPO [2] (60 min), the “increase in activation ratio (AR=CNR(post-contrast)/CNR(first post-contrast))” value came out at 2 fold. At MPO [5], the “ΔCNR in unstable plaque” value amounted to 15.0. The “relaxivity (r1)” value in data set [6] is 4.3 mM⁻¹ s⁻¹.
